# Results as given in BindingDB's records for doi:10.1021/acs.jmedchem.9b00506 (Rapt Therapeutics, 2019).
# Test: Antagonist activity at CCR4 in human CCRF-CEM cells assessed as inhibition of CCL22-mediated chemotaxis in presence of 100% human serum pre-incubated for 30 mins followed by CCL22 addition and measured after 60 mins by chemoTX probe based CellTiter-Glo assay
row,Structure (SMILES),IC50 [µM]
1,Cc1nn([C@H](C)c2ccc(Cl)cc2Cl)c2nc(N3CC[C@H](N4CCC[C@H]4CCC(N)=O)[C@H](C)C3)cnc12,0.355
2,C[C@@H]1CC(c2cnc3c(C#N)nn([C@H](C)c4ccc(Cl)cc4Cl)c3n2)=CC[C@@H]1N1CCC[C@H]1CN,0.638
3,C[C@@H]1CC(c2cnc3c(C#N)nn([C@H](C)c4ccc(Cl)cc4Cl)c3n2)=CC[C@@H]1N1CCC[C@H]1C,0.044
4,Cc1nn([C@H](C)c2ccc(Cl)cc2Cl)c2nc(C3=CC[C@H](N4CCC[C@H]4CO)[C@H](C)C3)cnc12,0.179
5,Cc1nn([C@H](C)c2ccc(Cl)cc2Cl)c2nc(N3CC[C@H](N4CCCCC4)[C@H](C)C3)cnc12,0.361
6,Cc1nn([C@H](C)c2ccc(Cl)cc2Cl)c2nc(N3CC[C@H](N4CCC[C@H]4CCC#N)[C@H](C)C3)cnc12,0.865

# Now from value to compound:
row,IC50 [µM],Structure (SMILES)
1,1.38,C[C@@H]1CC(c2cnc3c(C#N)nn([C@H](C)c4ccc(Cl)cc4Cl)c3n2)=CC[C@@H]1N1CCC[C@H]1C(N)=O
2,0.07,C[C@@H]1CC(c2cnc3c(C#N)nn([C@H](C)c4ccc(Cl)cc4Cl)c3n2)=CC[C@@H]1N1CCC[C@H]1CO
3,0.259,Cc1nn([C@H](C)c2ccc(Cl)cc2Cl)c2nc(N3CC[C@H](N4CCC[C@H]4CCS(N)(=O)=O)[C@H](C)C3)cnc12
4,1.2,C[C@@H]1CC(c2cnc3c(C#N)nn([C@H](C)c4ccc(Cl)cc4Cl)c3n2)=CC[C@@H]1N1CCC[C@H]1C(C)(C)O

# Test: Antagonist activity at CCR4 in anti-CD3/CD28 stimulated mouse Treg cells assessed as inhibition of CCL22-mediated chemotaxis in presence of 100% human serum pre-incubated for 30 mins followed by CCL22 addition and measured after 60 mins by chemoTX probe based CellTiter-Glo assay
row,IC50 [µM],Structure (SMILES)
1,0.165,C[C@@H]1CC(c2cnc3c(C#N)nn([C@H](C)c4ccc(Cl)cc4Cl)c3n2)=CC[C@@H]1N1CCC[C@H]1CO
2,0.325,C[C@@H]1CC(c2cnc3c(C#N)nn([C@H](C)c4ccc(Cl)cc4Cl)c3n2)=CC[C@@H]1N1CCC[C@H]1C
